Data: US12729368B2, “Methods and compositions for generating oligodendrocyte progenitor cells” (Trailhead Biosystems Inc., priority 2022, dated 2026)
Where “and” joins values, the source holds several entries; their conditions need not be identical. Identical values can stand only once.

Key:
Assay type in all cases: cell-based, human
stage 2 early-OPCs = test: HD-DoE 12-factor model for stage 3 (version 1) on stage 2 early-OPCs; conditions: positive
Experimental: In another model, the effects of Activin A and TTNPB along with LDN193189, MHY1485, PDGF-AA, AICAR, FGF2, CHIR99021, DBZ, MK2206, Purmorphamine and T3+T4 were tested on gene profile of differentiating cells. When this model was optimized for maximum expression of SOX10 at 54.7, we observed Activin A again had positive regulatory impact on its expression, with factor contribution of 4.7. Other positive factors included MK2206, with the highest factor contribution at 16.2, MHY1485 at 11.49, CHIR99021 at 9.6, DBZ at 9.3, FGF2 at 3.6 and PDGF-AA, with factor contribution less than 3 (FIG. 20).
In this model, we also investigated the conditions of expression of another important OPC gene, CSPG4 (Goldman and Kuypers (2015) Development 142:3983-95: van Tilborg et al. (2018) Glia 66:221-238).
Dynamic profile analysis was used to better assess the impact of the factors on our selected genes and find the combination set that can optimize their expression (FIG. 22). According to this analysis, even though Activin A has a positive effect on SOX10, it decreases level of PDGFRa and OLIG1. […] Moreover, SOX10 is one of the main transcription factors of oligodendrocytes, along with OLIG2 and NKX2-2, that has shown the potential to commit the stem cells to oligodendrocytes in reprogramming efforts (Wang et al. (2014) Proc Natl Acad Sci USA 111:E2885-94; Garciá-León et al. (2018) Stem Cell Reports 10:655-672). […] One of the main challenges of differentiating cells to oligodendrocyte fate is controlling the mixed population and increasing the purity of the culture by committing more cells to oligodendrocyte over neuronal identity. Therefore, DBZ was excluded from the final recipe.
At this point, we investigated the expression profile of a larger group of genes defining oligodendrocyte progenitor population at a later stage, including ID2, CNP and BCAN (Perlman et al. (2020). Glia 68:1291-1303; Goldman and Kuypers (2015) Development 142:3983-95). In this model, these genes were expressed at 1900, 660 and 44, respectively.

pre-OPCs = test: HD-DoE 8-factor model for stage 2 (version 2) on pre-OPCs; conditions: positive
Experimental: To engineer the recipe of stage 2 of differentiation, cells were first cultured in the stage 1 media described in Example 1, then, 48 or 96 different combinations of effectors generated using Design-of-Experiments compression through D-optimality were robotically prepared. The effector combinations were prepared in a basal media and were subsequently added to the cells, which were then allowed to differentiate. Three days later RNA extraction was performed, and gene expression was obtained using quantitative PCR analysis. The data was normalized and modeled using partial least squares regression analysis to the effector design, resulting in the generation of gene-specific models, which after model tuning for maximal predictive power, provided explanation of the effectors ability to control the expression of individual genes, combinatorically, and individually. Solutions within the tested space could then be explored to address desirability.
At this point, due to short duration of culture (only six days in vitro) we decided to focus on maximal expression of OLIG2 and maintenance of high expression of NKX2-2, while initiating expression of SOX10, OLIG1 and PDGFRa, to guide the cells towards oligodendrocyte fate (Emery and Lu (2015). Cold Spring Harb Perspect Biol. 7:a020461; Perlman et al. (2020). Glia 68:1291-1303; Goldman and Kuypers (2015) Development 142:3983-95). In one 8-factor model, the individual and combinatorial impact of CHIR99021 (a WNT pathway agonist), AGN193109 (an RA pathway antagonist), FGF-2 (an FGFR agonist), Purmorphamine (an SHH pathway agonist), AICAR (an AMPK agonist), GW3965 (an LXR pathway agonist), GW590735 (a PPAR-a agonist) and AZD3147 (a mTOR antagonist) on further differentiation of cells were tested.

[1] = tested on: cells cultured in stage 1 and stage 2 differentiation media; test: HD-DoE 8-factor model for stage 3 (version 2); conditions: for factor contribution: positive
[2] = optimized for maximum expression of OLIG1 at 454.7
[3] = optimized for maximum expression of OLIG2 at 3325

c1ccc2c(Oc3nc(Nc4ccc(N5CCOCC5)cc4)c4ncn(C5CCCCC5)c4n3)cccc2c1 [Purmorphamine]
factor contribution (stage 2 early-OPCs; optimized for maximum expression of CSPG4 at 38.6): 10.3 | factor contribution (pre-OPCs; [2]): 22.75 | factor contribution (pre-OPCs; [3]): 7.39 | factor contribution ([1]; optimized for maximum expression of PDGFRa at 853.4): 20.6 and 20.61

FGF2: FGF pathway activator, an FGFR agonist
factor contribution (stage 2 early-OPCs; optimized for maximum expression of SOX10 at 54.7): 3.6 | factor contribution (pre-OPCs; [2]): 9.9 | factor contribution (pre-OPCs; [3]): 5.2 | effect on late OPC genes and neuronal genes ([1]; factor plots vs concentration): increased the expression levels of OPC genes while decreasing the expression levels of neuronal genes | factor contribution ([1]; optimized for SOX10 at 41.04): 15.3
